Converted amounts (≈) assume the structure as drawn.
Experiments:
Test in all cases: Antifungal activity test (in vitro), MIC
Assay type in all cases: cell-based
[1] = tested on: Trichophyton mentagrophytes ATCC 9533; conditions: ATCC9533
Method: (§1) Minimum inhibitory concentration (MIC) of each of the compounds obtained in Examples 1 to 12 was measured for respective fungi at MOS Pharm Service, by the methods described in Antimicrobial Agents and Chemotherapy, vol. 3, pp. 40-48 (1973), Antimicrobial Agents and Chemotherapy, vol. 33, pp. 215-222 (1989) and Antimicrobial Agents and Chemotherapy, vol. 38, pp. 2362-2368 (1994). The measuring conditions are shown in the following. In this case, Voriconazol was used as a comparative compound. Trichophyton mentagrophytes ATCC 9533; Cultured at 28° C. for 3 days using fluid Sabouraud medium, and this was used as a cell suspension. Each of the compounds of the invention was adjusted to a concentration of 1% by weight using dimethyl sulfoxide (DMSO) and a medium similar to the respective medium used in the above-mentioned fungal culture, having a final concentration of from 0.001 to 100 μg/ml, was prepared. Each of the inoculation cell suspensions prepared by the above-mentioned methods was inoculated onto this agar plate. […] In this connection, Voriconazol was used as the comparative compound C-1.

[2] = tested on: Microsporum canis ATCC 36299; conditions: ATCC36299
Method: as §1, with “compound. Microsporum canis” for “compound. Trichophyton mentagrophytes”, “ATCC 36299;” for “ATCC 9533;”, “at 30°” for “at 28°”, “for 2” for “for 3”

[3] = tested on: Cryptococcus neoformans ATCC 24067; conditions: ATCC24067
Method: as §1, with “Cryptococcus neoformans” for “Trichophyton mentagrophytes”, “24067, Pityrosporum ovale ATCC 38593;” for “9533;”, “37°” for “28°”, “2 day” for “3 days”

[4] = tested on: Pityrosporum ovale ATCC 38593; conditions: Malassezia furfur, ATCC38593
Method: as §1, with “Cryptococcus neoformans” for “Trichophyton mentagrophytes”, “24067, Pityrosporum ovale ATCC 38593;” for “9533;”, “37°” for “28°”, “2 day” for “3 days”

[5] = tested on: Aspergillus fumigatus ATCC 1028; conditions: ATCC1028
Method: Minimum inhibitory concentration (MIC) of each of the compounds obtained in Examples 1 to 12 was measured for respective fungi at MOS Pharm Service, by the methods described in Antimicrobial Agents and Chemotherapy, vol. 3, pp. 40-48 (1973), Antimicrobial Agents and Chemotherapy, vol. 33, pp. 215-222 (1989) and Antimicrobial Agents and Chemotherapy, vol. 38, pp. 2362-2368 (1994). The measuring conditions are shown in the following. In this case, Voriconazol was used as a comparative compound.
Aspergillus fumigatus ATCC 1028; Cultured at 28° C. for 2 days using potato dextrose broth, and this was used as a cell suspension.
Each of the compounds of the invention was adjusted to a concentration of 1% by weight using dimethyl sulfoxide (DMSO) and a medium similar to the respective medium used in the above-mentioned fungal culture, having a final concentration of from 0.001 to 100 μg/ml, was prepared. Each of the inoculation cell suspensions prepared by the above-mentioned methods was inoculated onto this agar plate. […] In this connection, Voriconazol was used as the comparative compound C-1.

| SMILES | MIC [1] [µg/mL] | MIC [2] [µg/mL] | MIC [3] [µg/mL] | MIC [4] [µg/mL] | MIC [5] [µg/mL] |
| --- | --- | --- | --- | --- | --- |
| C[C@@H](N1CCC(c2ccccn2)CC1)[C@](O)(Cn1cncn1)c1ccc(F)cc1F [I-1, (2R,3R)-2-(2,4-difluorophenyl)-3-(4-pyridin-2-ylpiperidin-1-yl)-1-(1,2,4-triazol-1-yl)butan-2-ol] | 0.3 (≈ 0.726 µM) | 0.3 (≈ 0.726 µM) | 0.1 (≈ 0.242 µM) | 0.3 (≈ 0.726 µM) | 10 (≈ 24.2 µM) |
| C[C@@H](N1CC=C(c2ccccn2)CC1)[C@](O)(Cn1cncn1)c1ccc(F)cc1F [I-3, (2R,3R)-2-(2,4-difluorophenyl)-3-(3′,6′-dihydro-2,4′-bipyridin-1′(2′H)-yl)-1-(1,2,4-triazol-1-yl)butan-2-ol] | 0.1 (≈ 0.243 µM) | 0.03 (≈ 0.0729 µM) | 0.3 (≈ 0.729 µM) | 0.003 (≈ 0.00729 µM) | 1 (≈ 2.43 µM) |
| C[C@@H](N1CC=C(c2ccc(Cl)cn2)CC1)[C@](O)(Cn1cncn1)c1ccc(F)cc1F [I-6, (2R,3R)-3-(5-chloro-3′,6′-dihydro-2,4′-bipyridin-1′(2′H)-yl)-2-(2,4-difluorophenyl)-1-(1,2,4-triazol-1-yl)butan-2-ol] | 0.1 (≈ 0.224 µM) | 0.3 (≈ 0.673 µM) | 0.03 (≈ 0.0673 µM) | 0.003 (≈ 0.00673 µM) | 1 (≈ 2.24 µM) |
